Source: PMC12210912, “Pharmacologic properties and inhibitory activity of 6-azasteroids against Mycobacterium leprae in vivo and in vitro” (Microbiology Spectrum, 2025)

Columns and labels:
[1] = tested on: M. leprae 3β-HSD; assay: NAD+ reduction by M. leprae whole cell lysate; format: biochemical, Mycobacterium leprae; settings: M. leprae WCL with 200 µM cholesterol, vehicle DMSO mean 1.119
Protocol: M. leprae whole cell lysate (WCL) was obtained by bead-beating gamma-irradiated M. leprae Strain NHDP (BEI Resources, NR-19326) with 0.1 mm silica beads and FastPrep bead-beater (MP Biomedicals, USA). Homogenization was carried out in three cycles of agitation at 6.5 m/s for 45 s, with the sample being rested on ice for at least 2 min between cycles. The homogenates were centrifuged at 14,000 × g for 5 min to separate the spheres and WCL. The supernatant was recovered, and protein concentration determined using Pierce BCA protein assay (Thermo Fisher Scientific). NAD^+ (200 µM, MilliporeSigma, USA) reduction was measured as previously described using 50 µg (protein) of WCL protein, with the addition of 200 µM of cholesterol (MilliporeSigma) and in the presence or absence of compound 2 (40 and 100 µM) or compound 5 (100 µM) ([10]).

[2] = compound plasma concentration in Balb/c mice by LC-MS; format: in vivo; settings: 50 mg/kg; for plasma level at the end of the experiment with infected mice: Balb/c mice, 6 h after last dose, alone or with rifampicin
Protocol: Animal experimentation was conducted under approval by the ILSL ethical committee (CEUA ILSL 02/19). Balb/c female mice with 8-week-old were inoculated with 5 × 10^3 live M. leprae bacilli, strain Thai-53, in both hind footpads, as previously described for the Shepard’s model ([25]). Eight groups were tested in the experiment: (i) M. leprae control group (n = 5) inoculated with M. leprae and no additional treatment; (ii) vehicle control group (n = 4) inoculated with M. leprae and treatment with vehicle of the drugs; (iii) regular rifampicin treatment, 10 mg/Kg dose; (iv) sub-inhibitory rifampicin, 1 mg/kg dose (n = 5); (v) compound 2 treatment (n = 4), 50 mg/kg dose; (vi) compound 2 with sub-inhibitory rifampicin (n = 5), 50 mg/kg dose of compound 2 and 1 mg/kg dose of rifampicin; (vii) compound 5 treatment (n = 5), 50 mg/kg dose; and (viii) compound 5 with sub-inhibitory rifampicin (n = 5), 50 mg/kg dose of compound 5 and 1 mg/kg dose of rifampicin. One month after inoculation, mice from the control group were euthanized and the hind footpad was collected to assess the establishment of the infection by bacillary enumeration. At that time point, vehicle or drug treatment was started for the remaining groups. All compounds were administrated by gavage, rifampicin was administered weekly, and the compounds were administered daily (excluding weekends) for 1 month (20 doses). Mice were euthanized 6 h after administration of the last dose, and blood was collected in heparin-coated tubes by cardiac puncture for blood enzyme evaluation and compound 5 measurement by LC/MS in the plasma. The infected hind footpads from each group of mice were excised, homogenized and bacilli enumerated in a 100 µL aliquot as previously described ([26]). […]
Uninfected Balb/c female mice (n = 36), approximately 8 weeks old and 20 g, were divided into three groups. […] Concentrations of compound 5 in plasma were determined by LC/MS.
Compound 5 quantification in the plasma was performed on lipid extracts from plasma samples. […]

[3] = molecular target: T1, CYP3A4 (Homo sapiens, UniProt P08684); assay: inhibition of CYP3A4 enzymatic activity in human liver microsomes; format: in vitro ADME
T1 construct: Human liver microsomes (150 donors pooled, male & female, Corning, Cat# 452117) were used as a source of CYP3A4; tissue Corning 452117; host or cells: pooled human liver microsomes (150 donors)
T1 sequence (P08684 whole entry): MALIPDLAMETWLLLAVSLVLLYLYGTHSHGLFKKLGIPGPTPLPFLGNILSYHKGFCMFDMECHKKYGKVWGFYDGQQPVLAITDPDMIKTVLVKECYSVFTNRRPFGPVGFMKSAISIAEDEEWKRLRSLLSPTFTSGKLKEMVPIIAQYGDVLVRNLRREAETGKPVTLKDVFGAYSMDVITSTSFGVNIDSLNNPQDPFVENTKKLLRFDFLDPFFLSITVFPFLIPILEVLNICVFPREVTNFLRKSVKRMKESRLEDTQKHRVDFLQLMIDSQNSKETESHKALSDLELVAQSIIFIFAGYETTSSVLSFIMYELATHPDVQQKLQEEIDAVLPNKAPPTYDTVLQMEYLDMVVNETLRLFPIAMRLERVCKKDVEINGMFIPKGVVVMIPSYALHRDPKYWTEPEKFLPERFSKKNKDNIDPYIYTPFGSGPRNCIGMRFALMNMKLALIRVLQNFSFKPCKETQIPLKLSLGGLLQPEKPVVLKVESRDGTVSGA
Protocol: Inhibition of CYP3A4 enzymatic activity was carried out following a standard protocol by Pharmaron, Inc. Human liver microsomes (150 donors pooled, male & female, Corning, Cat# 452117) were used as a source of CYP3A4. The final concentration of human liver microsomes was 0.2 mg/mL. CYP3A4 was tested with testosterone (stock: 10 mM, final: 50 µM) or midazolam (stock: 1 mM, final: 5 µM) as substrate. Aliquots (1 µL) of test compounds (20 µM final concentration), positive control compound ketoconazole (20 µM final concentration), or buffer blank were transferred to a multi-well plate. The reaction was initiated with the addition of 20 µL of 10 mM NADPH solution to provide a final concentration of 1 mM in a 200 µL total volume and carried out at 37°C. The reaction was stopped by the addition of 1.5 volumes of methanol with incubation solution (100 nM alprazolam, 200 nM imipramine, 200 nM labetalol, and 2 µM ketoprofen) at designated time points (5 min midazolam-mediated CYP3A4; 10 min testosterone-mediated CYP3A4). The plate was centrifuged at 3,220 × g for 40 min to precipitate protein. Aliquots of 100 µL of the supernatant were diluted with 100 µL ultra-pure H2O, and the mixture was used for LC-MS/MS analysis to determine concentration of product (hydroxymidazolam or hydroxytestosterone) formed. The % inhibition was calculated by comparison with no inhibitor control. All experiments were performed in duplicate.

[4] = tested on: human type 1 5α-reductase; parameters: method as in PMID 8057283; settings: cited from earlier work

SMILES	rate of NAD+ reduction, mean value (ratio absorbance T/absorbance T0) ([1]; 40 µM)	rate of NAD+ reduction, mean value (ratio absorbance T/absorbance T0) ([1]; 100 µM)	plasma level at the end of the experiment with infected mice [2]	% inhibition observed, Cyp3A4 Midazolam Isoform ([3]; 20 µM, midazolam substrate)	% inhibition observed, Cyp3A4 Testosterone Isoform ([3]; 20 µM, testosterone substrate)	inhibition at 5 min, 20 µM ([3]; both sexes, probe midazolam (5 µM), midazolam substrate, read-out: % inhibition observed, Cyp3A4 Midazolam Isoform)	inhibition at 10 min, 20 µM ([3]; both sexes, probe testosterone (50 µM), testosterone substrate, read-out: % inhibition observed, Cyp3A4 Testosterone Isoform)	inhibition of human type 1 5α-reductase [4]	plasma levels over 4 weeks, alone vs in combination with rifampicin ([2]; non-infected Balb/c mice, rifampicin 1 mg/kg, weekly time points)
CCCN1CC2C3CCC(C(=O)Nc4cc(C(C)(C)C)ccc4C(C)(C)C)[C@@]3(C)CCC2[C@@]2(C)CCC(=O)C=C12 (some centres unmarked) [Compound 2]	0.9986	1.038	detectable levels	–	–	–	–	–	–
C[C@]12CCC3C(CNC4=CC(=O)CC[C@@]43C)C1CCC2C(=O)NC(c1ccc(F)cc1)c1ccc(F)cc1 (some centres unmarked) [Compound 5]	–	0.9070	detectable levels	strongly inhibits	strongly inhibits	79%	68%	nanomolar inhibitor	no significant differences
